Source: patent US20100009967A1, “SOLID DOSAGE FORMULATIONS OF T[…]” (priority 2008, published 2010)

How the values were obtained:
CGRP [1] = details: clinical trials, Olesen et al. 2004; cited from earlier work
CGRP [2] = details: control group, Petersen et al. 2005; cited from earlier work
[3] = 25° C./75% relative humidity

## BIBN4096BS
CGRP [1]
  efficacy in treating acute attacks of migraine: effective in treating acute attacks of migraine
CGRP [2]
  prevention of headache induced by CGRP infusion: able to prevent headache induced by CGRP infusion

## O=C(N[C@@H]1CC[C@@H](c2cccc(F)c2F)CN(CC(F)(F)F)C1=O)N1CCC(n2c(=O)[nH]c3ncccc32)CC1 [spray-dried amorphous form]
[3]
  Water content: 18%
